In patent publication US20040248139A1, “Eit-6, a polypeptide encoded by an estrogen regulated gene” (priority 2001, published 2004):

Columns and labels:
[1] = system: EIT-6 mRNA in BT-474 cells; experiment: Northern blot of EIT-6 mRNA, BT-474 cells; type: cell-based, human
Description: All the cell lines were obtained from the ATCC.
To determine if the induction of EIT-6 by estrogen is estrogen receptor-mediated, the effect of estrogen antagonists (4-hydroxy-tamoxifen and ICI 182,780) on EIT-6 mRNA levels was determined. BT-474 cells were cultured with […] (1 μM) or 4-hydroxy-tamoxifen (10 μM) for 6 hours prior to estrogen (10 nM) treatment for an additional 24 hours. […] There are multiple mechanisms by which estrogen can regulate the expression of EIT-6, e.g., (1) directly by transcriptional regulation, (2) directly by influencing mRNA stability, or (3) indirectly through other transcription factors/signaling pathways. […] To further investigate if EIT-6 is a direct or indirect target of estrogen receptors, EIT-6 mRNA levels were measured following estrogen treatment BT-474 cells in the presence of a protein synthesis inhibitor (cycloheximide) (FIG. 2B). The cells were treated with cycloheximide (10 μg/ml) for 16 hours in the presence or absence of estrogen.

[2] = system: prolyl hydroxylase enzymes; conditions: literature, compared with P2,5D where stated; cited from earlier work
[3] = system: ZR75-1 breast cancer cells; experiment: SAGE (serial analysis of gene expression) after estrogen or tamoxifen treatment; type: cell-based, human; conditions: 10 nM estradiol, 16 h
From the text: (§1) In order to identify genes involved in the response of breast cancer cells to estrogen and tamoxifen, SAGE libraries were generated from an estrogen- dependent human breast cancer cell line (ZR75-1; obtained from the American type Culture Collection (ATTC), Manassas, VA) prior to and following estrogen or tamoxifen treatment. SAGE facilitated the determination of the absolute abundance of thousands of different mRNAs simultaneously in a comprehensive and unbiased way and to detect even slight differences in expression levels between samples [Velculescu et al. (1995) Science 270: 484-487; Polyak et al. (1997) Nature 389:300-305; Lal et al. (1999) Cancer Res. 59:5403-5607; Velculescu et al. (1999) Nature Genetics 23:387-388]. ZR75-1 cells cultured in the absence of steroid hormones (i.e., in phenol red-free culture medium containing charcoal-treated fetal bovine serum (FBS) (5%)) for seven days were split into three aliquots which were then cultured in fresh steroid-free medium containing no additive, 10 nM estradiol, or 10 μM 4-hydroxy-tamoxifen. Cells were harvested from the cultures after sixteen hours and response to the hormone treatment was confirmed by FACS analysis of cell cycle progression and by Northern blot analysis to test for the expression of known estrogen target genes.
SAGE libraries from untreated, estrogen-treated and tamoxifen-treated ZR75-1 cells were generated using a modified micro-SAGE protocol [Porter et al. (2001) Cancer Res. 61: 5697-5702]. From the three SAGE libraries 140,638 tags were obtained, approximately 45,000 from each library. Hierarchical clustering was applied to data using the Auster program developed by Eisen et al. [(1998) Proc. Natl. Acad. Sci. USA. 95: 14863-14868]. Data was log-transformed and filtered for at least 1 observations abs Val 5 and Maxval-Minval >5. Using these settings 2,818 genes (out of 16,808 total) were included in the analysis that led to the identification of several estrogen- and/or tamoxifen-induced transcripts. […] Linking the UniGene database to the SAGE data identified the cDNAs corresponding to the SAGE tags in most of the cases (Table 1). Genes were named according to their relative abundance in the three SAGE libraries: EIT (Estrogen Induced Tag)-induced by estrogen; TIT (Tamoxifen Induced Tag)-induced by tamoxifen; and DET (Differently Expressed Tag)-differently expressed following estrogen or tamoxifen treatment.

[4] = system: ZR75-1 cells; experiment: FACS analysis of cell cycle progression; type: cell-based, human; conditions: steroid-deprived ZR75-1 cells; 10 nM estradiol or 10 μM 4-hydroxy-tamoxifen, 16 h
From the text: as §1

[5] = system: T47D ER+ breast cancer cells; experiment: Colony assay, T47D cells; type: cell-based, human; conditions: control pCEP4 and EIT-6 transfected cells, charcoal/dextran treated FBS, estrogen 10 nM
Description: In order to test whether EIT-6 expresssion influences cell proliferation and/or survival, colony assays were performed. […] T47D ER+breast cancer cells were transfected with a control construct (pCEP4) or the pCEP4-EIT6 construct. Stable transfectants were selected by culturing the cells in the presence of hygromycin for two weeks after which colonies were visualized by crystal violet staining. […] The number of colonies per cm^2 was determined by spot-densitometry-assisted counting using a MultiImage Lightbox (Alfa Innotech, San Leandro, Calif.). Two flasks per experimental group and two independent areas in each flask were analyzed.
To test if expression of EIT-6 can confer estrogen independent growth, ER+and estrogen dependent T47D breast cancer cells were transfected with control pCEP4 or pCEP4-EIT6 constructs. Stable transfectants were selected by culturing the cells in phenol red-free medium supplemented with charcoal/dextran treated (and thus steroid hormone depleted) FBS (5%) and hygromycin. Half the flasks contained estrogen (10 nM). After two weeks of dry selection, colonies were visualized by crystal violet staining and counted as described above.

[6] = system: putative estrogen responsive elements (ERE) in HepG2 cells; experiment: Luciferase reporter assay, ERE concatamer constructs with estrogen receptor α in HepG2 cells
Description: The cells were transfected using FuGene 6 (Roche, Basel, Switzerland) and treated with estrogen the day after transfection. On the day following estrogen treatment luciferase activity was determined using a luciferase assay system (Promega, Madison, Wis.). […] To determine whether these putative EREs could confer estrogen responsiveness, various constructs containing concatemers of each of these elements (in a variety of combinations) up-stream of a luciferase gene were generated (FIG. 2D). These concatamer constructs were generated by subcloning concatamers of PCR-derived fragments (of the EIT-6 promoter region) containing the putative ERE's into pBR-pl-TATA-luc [Polyak et al. (1997) Nature 389:300-305]. Luciferase and β-galactosidase activity was measured following transient co-transfection of these constructs with the estrogen receptor α-encoding construct (referred to above) and a vector containing a β-galactosidase-encoding cDNA sequence under control of a constitutive (CMV) promoter into HepG2 cells as described above and the values of luciferase activity were normalized for transfection efficiency by calculating ratios of luciferase activity to β-galactosidase activity which was measured using the Aurora GAL-XE reporter gene assay (ICN, Costa Mesa, Calif.). “Fold induction” was calculated according to the following formula:
Fold induction=(luciferase activity in estrogen treated cells÷βgalactosidase activity in estrogen treated cells)÷(luciferase activity in control cells÷βgalactosidase activity in control cells).

[7] = system: EIT-6 promoter region; conditions: ~5.5 kb EIT-6 promoter construct co-transfected with estrogen receptor α
Description: To further characterize the mechanism by which the estrogen receptor induces EIT-6, a fragment of the proximal EIT-6 promoter was tested for its ability to confer estrogen responsiveness on a luciferase reporter gene. The luciferase construct was generated by subcloning a BAC (bacterial artificial chromosome)-derived fragment of EIT-6 promoter region (approximately 5.5 kb in length) into pBR-pl-luc [Polyak et al. (1997)]. The cells were transfected using FuGene 6 (Roche, Basel, Switzerland) and treated with estrogen the day after transfection. On the day following estrogen treatment luciferase activity was determined using a luciferase assay system (Promega, Madison, Wis.). […] Luciferase and β-galactosidase activity was measured following transient co-transfection of these constructs with the estrogen receptor α-encoding construct (referred to above) and a vector containing a β-galactosidase-encoding cDNA sequence under control of a constitutive (CMV) promoter into HepG2 cells as described above and the values of luciferase activity were normalized for transfection efficiency by calculating ratios of luciferase activity to β-galactosidase activity which was measured using the Aurora GAL-XE reporter gene assay (ICN, Costa Mesa, Calif.). “Fold induction” was calculated according to the following formula:

[8] = system: EIT-6 mRNA in ZR75-1 cells; experiment: Northern blot of EIT-6 mRNA, ZR75-1 cells; type: cell-based, human
From the text: To confirm the result of the SAGE experiment, probes corresponding to some of the cDNA clones were generated and the induction of the relevant genes was confirmed by Northern blot analysis (FIG. 1A) performed as previously described [Polyak et al. (1997)]. Of the twenty estrogen- or tamoxifen-induced genes (Table 1), only one (EIT-10;cathepsin D) had previously been implicated as a target of ER-transcriptional activation and three had not previously been described at all. In most cases the sequences of the relevant genes provided important clues as to their potential functions (Table 1). Several of the genes are predicted to be involved in the regulation of cell proliferation and/or survival. […]

[9] = BT-474, 16 h, cycloheximide 10 μg/ml

C[C@]12CC[C@@H]3c4ccc(O)cc4C[C@@H](CCCCCCCCC[S+]([O-])CCCC(F)(F)C(F)(F)F)[C@H]3[C@@H]1CC[C@@H]2O (stereo partly shown) [ICI 182,780]
abolition of estrogen induction of EIT-6 mRNA ([1]; BT-474, antagonist (ICI 1 μM or 4-hydroxy-tamoxifen 10 μM) 6 h before estrogen 10 nM for 24 h): completely

C[C@@H](NC(=O)C(=O)O)C(=O)O [N-oxalyl-2R-alanine]
inhibition of prolyl hydroxylase [2]: not

C[C@H](NC(=O)C(=O)O)C(=O)O [N-oxalyl-2S-alanine]
inhibition of prolyl hydroxylase [2]: Inhibitory

O=C(O)CNC(=O)C(=O)O [N-oxalylglycine]
inhibition of prolyl hydroxylase [2]: Inhibitory

C[C@@H]1C[C@@H]([C@H](O)CC2CC(=O)NC(=O)C2)C(=O)[C@@H](C)C1 [cycloheximide]
EIT-6 mRNA levels, separate treatment [1, 9]: modestly increased

C[C@]12CC[C@@H]3c4ccc(O)cc4CC[C@H]3[C@@H]1CC[C@@H]2O [estrogen, estradiol]
SAGE tags, E (estrogen-treated) ([3]; gene DET-1, untreated C = 4): 15 | SAGE tags, E (estrogen-treated) ([3]; gene DET-2, untreated C = 3): 13 | SAGE tags, E (estrogen-treated) ([3]; gene DET-13, untreated C = 7): 1 | SAGE tags, E (estrogen-treated) ([3]; gene DET-14, untreated C = 4): 1 | SAGE tags, E (estrogen-treated) ([3]; gene DET-15 (USF2), untreated C = 11): 1 | SAGE tags, E (estrogen-treated) ([3]; gene DET-16, untreated C = 7): 0 | SAGE tags, E (estrogen-treated) ([3]; gene DET-17 (SULT 1A), untreated C = 0): 1 | SAGE tags, E (estrogen-treated) ([3]; gene EIT-1, untreated C = 1): 14 | SAGE tags, E (estrogen-treated) ([3]; gene EIT-2 (TIM17B), untreated C = 1): 14 | SAGE tags, E (estrogen-treated) ([3]; gene EIT-3, untreated C = 2): 19 | SAGE tags, E (estrogen-treated) ([3]; gene EIT-4, untreated C = 2): 18 | SAGE tags, E (estrogen-treated) ([3]; gene EIT-5, untreated C = 5): 27 | SAGE tags, E (estrogen-treated) ([3]; gene EIT-6, untreated C = 5): 26 | SAGE tags, E (estrogen-treated) ([3]; gene EIT-10 (Cathepsin D), untreated C = 112): 451 | SAGE tags, E (estrogen-treated) ([3]; gene TIT-1, untreated C = 0): 4 | SAGE tags, E (estrogen-treated) ([3]; gene TIT-2, untreated C = 0): 3 | SAGE tags, E (estrogen-treated) ([3]; gene TIT-3, untreated C = 8): 28 | SAGE tags, E (estrogen-treated) ([3]; gene TIT-4, untreated C = 7): 27 | SAGE tags, E (estrogen-treated) ([3]; gene TIT-5, untreated C = 9): 19 | S-phase entry [4]: stimulated rapid S-phase entry | colony numbers on addition of estrogen [5]: increased colony numbers | fold induction of luciferase by estrogen ([6]; E4 construct (3 copies of the E4 ERE), HepG2, normalized to β-galactosidase): 4-5 fold | fold induction of luciferase by estrogen ([6]; VIT construct (two copies of vitellogenin consensus ERE), HepG2): 10-11 fold | estrogen responsiveness of luciferase constructs ([6]; most of the putative ERE combinations, HepG2): relatively weak | luciferase activity [7]: modest but reproducible induction | induction of EIT-6 mRNA [8]: ~5 fold | EIT-6 mRNA levels, separate treatment [1, 9]: modestly increased | EIT-6 mRNA levels, estrogen in the presence of cycloheximide ([1]; BT-474, cycloheximide 10 μg/ml, 16 h): much stronger induction | induction of EIT-6 mRNA ([1]; BT-474 cells, Northern blot): ~10 fold
